Laboratory results reported in patent publication US20260217688A1, “INHIBITORS OF JAK2” (Llydaw Therapeutics, Inc., priority 2022, published 2026).

Experiments:
JAK2 JH2 = biological target: T1, JAK2 JH2 (Homo sapiens, UniProt O60674); test: JAK2 JH2 TR-FRET Assay; type: binding; settings: JAK2 JH2 1 nM, Tracer ZE84-0003 10 nM
T1 construct: Enzyme: JAK2 JH2, His-Avi-Tag, Biotin-Labeled (BPS Bioscience, Cat #79074) 1 nM; His; purchased BPS Bioscience 79074
Protocol: Assay Buffer 1×: • 20 mM HEPES pH 7.2-7.4; • 10 mM MgCl2; • 0.015% Brij-35; • 2 mM DTT; • 0.05 mg/ml BSA.
Final assay concentrations: • DMSO: 0.25%; • Streptavidin Tb-cryptate (Cisbio, Cat #610SATLB) 0.2 nM; • Enzyme: JAK2 JH2, His-Avi-Tag, Biotin-Labeled (BPS Bioscience, Cat #79074) 1 nM; • Probe: Tracer ZE84-0003 (ChemRar) 10 nM.
Materials: • Reaction plate: ProxiPlate-384 Plus White Plate (PerkinElmer); • Dilution plate: Diamond Well Plate (Axygen, Cat #P-384-120 SQ-C-S); • Compounds plate: Diamond Well Plate (Axygen, Cat #P-384-120 SQ-C-S).
Assay protocol: • 1. Prepare 400× solutions of compounds in DMSO into Compounds plate; • 2. Prepare Dilution plate: add 39 μL of 1× Assay buffer per well of Dilution plate; • 3. Prepare 2×Tb-cryptate mix in 1× Assay buffer. Add 10 μL of 2×Tb-cryptate mix to K-(Tb-cryptate and Probe without Enzyme) wells and blank (Tb-cryptate without Probe and Enzyme) wells; • 4. Add JAK2 JH2 into the rest of 2×Tb-cryptate mix to make 2×JAK2 JH2+Tb-cryptate mix. Add 10 μL per well into Reaction plate; • 5. Centrifuge plate at 200 g for 1 min; • 6. Dilute 1 μL of 400× compounds in 39 μL 1× Assay buffer in Dilution plate; • 7. Add 2 μL of 10× compounds from Dilution plate to Reaction plate with 10 μL of JAK2 JH2+Tb-cryptate mix; • 8. Centrifuge plate at 200 g for 1 min; • 9. Pre-incubate Reaction plate with compounds 15 min; • 10. Prepare 2.5× Tracer mix; • 11. Add 8 μL of 2.5× Tracer mix into appropriate wells of Reaction plate; • 12. Centrifuge plate at 800 g for 3 min; • 13. Incubate at rt for 15 min; • 14. Measure Fluorescence using Microplate Reader (Ex: TR, Em1/Em2: 482/520). The results of this assay are shown in the Table B. The values of EC50 shown as a letters A-D, where: A≤0.01 μM; 0.01 μM<B≤0.05 μM; 0.05 μM<C≤0.1 μM; D>0.1.

[1] = Proliferation inhibition assay (CellTiter-Glo), Ba/F3 JAK2 wt; type: cell-based; settings: mouse, Ba/F3 (JAK2 wt) cells, with 10 ng/ml rmIL-3, 72 h; read-out: Ba/F3 JAK2 wt + IL3, CC50 3 days
Protocol: (§1) Ba/F3 (JAK2 wt) (ABM, T3076) cells and Ba/F3 (JAK2 V617F) (WuXi AppTec) cells were grown in RPMI-1640 (Gibco, cat. number 21870) supplemented with 10% FBS (Hyclone Laboratories Inc, Cat #SV30160.03), 1× Antibiotic-antimycotic (Gibco, Cat #15240-062), 2× Sodium pyruvate (Paneco, cat #F023), 2× Essential amino acids (Paneco, cat #F115/100), 1× Non-Essential amino acids (Paneco, cat #F116) at 37° C. in 5% CO2 atmosphere.
(§2) For the proliferation inhibition assay Ba/F3 (JAK2 wt) and Ba/F3 (JAK2 V617F) cells were seeded into a CellBIND® 384-well Flat Clear Bottom Black Polystyrene Microplates (Corning, USA, Cat #3770) at a density of 4000 cells per well in complete culture medium with or without 10 ng/ml rmIL-3 (RD systems, USA, Cat #403-ML-025) using Biomek FX/NX (384) liquid handler, 45 μl of cell suspension in complete culture medium per well. 500× compound's stocks in DMSO (Sigma Cat #D2650) were prepared in compounds plate (Diamond Well Plate, Axigen, Cat #P-384-120 SQ-C-S) applying Biomek 2000. 1 μl of 500× compounds stock was added to 49 μl of complete culture medium into Dilution plate (Diamond Well Plate, Axigen, Cat #P-384-120 SQ-C-S), mixed and then 5 μl of 10× compounds solution was transferred to cells using Biomek FX/NX (384) liquid handler. The centrifugation at 100 g for 1 min at Eppendorf 5810 followed. Final DMSO concentration in assay was 0.2%. All treatments were performed in technical and biological duplicates. Treated cells were incubated for 72 h at 37° C. with 5% CO2.
(§3) After 3 days of incubation, CellTiter-Glo Luminescent Cell Viability Assay (Promega) was performed. 10 μl of CellTiter-Glo (Promega, CAT #G7572) was added to the cells using Biomek FX/NX (384) liquid handler. The assay plate was centrifuged at 100 g for 1 min and luminescence signal was measured using Microplate Reader (CLARIOStar).

Ba/F3 (JAK2 V617F) cells = test: Proliferation inhibition assay (CellTiter-Glo), Ba/F3 JAK2 V617F; type: cell-based; settings: Mus musculus, BaF3; without IL3, 72 h; read-out: Ba/F3 JAK2 V617F, CC50 3 days
Protocol: as §1, §2, §3

T1 sequence (O60674 545-809 limits assumed): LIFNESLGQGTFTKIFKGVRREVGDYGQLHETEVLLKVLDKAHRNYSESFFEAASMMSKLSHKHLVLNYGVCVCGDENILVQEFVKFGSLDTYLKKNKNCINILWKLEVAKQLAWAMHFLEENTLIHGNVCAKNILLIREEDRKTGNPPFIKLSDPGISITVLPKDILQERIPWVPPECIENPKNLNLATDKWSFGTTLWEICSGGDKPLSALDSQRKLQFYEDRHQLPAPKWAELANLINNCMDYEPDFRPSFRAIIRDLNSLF

Row | Compound | EC50 (JAK2 JH2) [µM] | CC50 at 72 h [1] [µM] | CC50 (Ba/F3 (JAK2 V617F) cells) [µM]
1 | COc1c(Nc2nc(Nc3cnn(CCN(C)C)c3)ncc2C(N)=O)cccc1-c1ncn(C)n1 [Compound 5, 2-((1-(2-(dimethylamino)ethyl)-1H-pyrazol-4-yl)amino)-4-((2-methoxy-3-(1-methyl-1H-1,2,4-triazol-3-yl)phenyl)amino)pyrimidine-5-carboxamide] | 0.01 to 0.05 | – | –
2 | COc1c(Nc2nc(Nc3cn(C)nc3C)ncc2C(N)=O)cccc1-c1ncn(C)n1 [Compound 13, 2-[(1,3-dimethylpyrazol-4-yl)amino]-4-[2-methoxy-3-(1-methyl-1,2,4-triazol-3-yl)anilino]pyrimidine-5-carboxamide] | > 0.1 | – | –
3 | CCCn1nc(C)c(Nc2ncc(C(N)=O)c(Nc3cccc(-c4ncn(C)n4)c3OC)n2)c1C [Compound 19, 2-[(3,5-dimethyl-1-propyl-pyrazol-4-yl)amino]-4-[2-methoxy-3-(1-methyl-1,2,4-triazol-3-yl)anilino]pyrimidine-5-carboxamide] | > 0.1 | – | –
4 | COc1c(Nc2nc(Nc3c(C)nn(C(C)C)c3C)ncc2C(N)=O)cccc1-c1ncn(C)n1 [Compound 20, 2-[(1-isopropyl-3,5-dimethyl-pyrazol-4-yl)amino]-4-[2-methoxy-3-(1-methyl-1,2,4-triazol-3-yl)anilino]pyrimidine-5-carboxamide] | > 0.1 | – | –
5 | COc1c(Nc2nc(Nc3cnn(CC45CC6CC(CC(C6)C4)C5)c3)ncc2C(N)=O)cccc1-c1ncn(C)n1 [Compound 23, 2-[[1-(1-adamantylmethyl)pyrazol-4-yl]amino]-4-[2-methoxy-3-(1-methyl-1,2,4-triazol-3-yl)anilino]pyrimidine-5-carboxamide] | > 0.1 | – | –
6 | CCCCCCCCn1cc(Nc2ncc(C(N)=O)c(Nc3cccc(-c4ncn(C)n4)c3OC)n2)cn1 [Compound 25, 4-[2-methoxy-3-(1-methyl-1,2,4-triazol-3-yl)anilino]-2-[(1-octylpyrazol-4-yl)amino]pyrimidine-5-carboxamide] | > 0.1 | – | –
7 | COc1c(Nc2nc(Nc3cnn(CCC4CCCCN4C)c3)ncc2C(N)=O)cccc1-c1ncn(C)n1 (stereo not drawn) [Compound 27, 4-[2-methoxy-3-(1-methyl-1,2,4-triazol-3-yl)anilino]-2-[[1-[2-(1-methyl-2-piperidyl)ethyl]pyrazol-4-yl]amino]pyrimidine-5-carboxamide] | > 0.1 | – | –
8 | COc1c(Nc2nc(Nc3cnn(C(C)C)c3)ncc2C(=O)N(C)C)cccc1-c1ncn(C)n1 [Compound 31, 2-[(1-Isopropyl-1H-pyrazol-4-yl)amino]-4-{[2-methoxy-3-(1-methyl-1H-1,2,4-triazol-3-yl)phenyl]amino}-N,N-dimethylpyrimidine-5-carboxamide] | > 0.1 | – | –
9 | COc1c(Nc2nc(Nc3cnn(C4CCN(C)CC4)c3)ncc2C(N)=O)cccc1-c1nc2ccccc2o1 [Compound 32, 4-[3-(1,3-benzoxazol-2-yl)-2-methoxy-anilino]-2-[[1-(1-methyl-4-piperidyl)pyrazol-4-yl]amino]pyrimidine-5-carboxamide] | 0.01 to 0.05 | 1 to 5 | 0.5 to 1
10 | COc1c(Nc2nc(Nc3cnn(C4CCN(C(C)C)CC4)c3)ncc2C(N)=O)cccc1-c1nc2ccccc2o1 [Compound 33, 4-[3-(1,3-benzoxazol-2-yl)-2-methoxy-anilino]-2-[[1-(1-isopropyl-4-piperidyl)pyrazol-4-yl]amino]pyrimidine-5-carboxamide] | 0.01 to 0.05 | 1 to 5 | ≤ 0.5
11 | COc1c(Nc2nc(Nc3cnn(CCN(CC(C)C)CC(C)C)c3)ncc2C(N)=O)cccc1-c1nc2ccccc2o1 [Compound 34] | > 0.1 | 5 to 10 | 1 to 5
12 | COc1c(Nc2nc(Nc3cnn(C4CCN(C(C)C)CC4)c3)ncc2C(N)=O)cccc1-c1ncn(C)n1 [Compound 35, 2-[[1-(1-isopropyl-4-piperidyl)pyrazol-4-yl]amino]-4-[2-methoxy-3-(1-methyl-1,2,4-triazol-3-yl)anilino]pyrimidine-5-carboxamide] | 0.01 to 0.05 | > 10 | 1 to 5
13 | COc1c(Nc2nc(Nc3cnn(C)c3)ncc2C(N)=O)cccc1-c1cccnc1 [Compound 36, 4-[2-methoxy-3-(3-pyridyl)anilino]-2-[(1-methylpyrazol-4-yl)amino]pyrimidine-5-carboxamide] | 0.01 to 0.05 | > 10 | > 10
14 | COc1c(Nc2nc(Nc3cnn(C)c3)ncc2C(N)=O)cccc1-c1ccncc1 [Compound 37, 4-[2-methoxy-3-(4-pyridyl)anilino]-2-[(1-methylpyrazol-4-yl)amino]pyrimidine-5-carboxamide] | 0.01 to 0.05 | 5 to 10 | 5 to 10
15 | COc1c(Nc2nc(Nc3cnn(C(C)C)c3)ncc2C(N)=O)cccc1-c1ccccn1 [Compound 38, 2-[(1-isopropylpyrazol-4-yl)amino]-4-[2-methoxy-3-(2-pyridyl)anilino]pyrimidine-5-carboxamide] | 0.01 to 0.05 | 5 to 10 | ≤ 0.5
16 | COc1c(Nc2nc(Nc3cnn(C4CCCCC4)c3)ncc2C(N)=O)cccc1-c1ccccn1 [Compound 39, 2-[(1-cyclohexylpyrazol-4-yl)amino]-4-[2-methoxy-3-(2-pyridyl)anilino]pyrimidine-5-carboxamide] | 0.05 to 0.1 | 5 to 10 | ≤ 0.5
17 | COc1c(Nc2nc(Nc3cnn(C4CCOCC4)c3)ncc2C(N)=O)cccc1-c1ccccn1 [Compound 40, 4-[2-methoxy-3-(2-pyridyl)anilino]-2-[(1-tetrahydropyran-4-ylpyrazol-4-yl)amino]pyrimidine-5-carboxamide] | 0.01 to 0.05 | 5 to 10 | ≤ 0.5
18 | COc1c(Nc2nc(Nc3cnn(C45CC6CC(CC(C6)C4)C5)c3)ncc2C(N)=O)cccc1-c1ccccn1 [Compound 41, 2-[[1-(1-adamantyl)pyrazol-4-yl]amino]-4-[2-methoxy-3-(2-pyridyl)anilino]pyrimidine-5-carboxamide] | > 0.1 | 5 to 10 | 1 to 5
19 | COc1c(Nc2nc(Nc3cnn(CC(C)C)c3)ncc2C(N)=O)cccc1-c1ncn(C)n1 [Compound 58, 2-[(1-isobutylpyrazol-4-yl)amino]-4-[2-methoxy-3-(1-methyl-1,2,4-triazol-3-yl)anilino]pyrimidine-5-carboxamide] | – | 1 to 5 | 0.5 to 1
20 | COc1c(Nc2nc(Nc3cnn(CC(F)(F)F)c3)ncc2C(N)=O)cccc1-c1ncn(C)n1 [Compound 59] | – | 5 to 10 | 1 to 5
